{"source": "patent US7378104B2", "about": "“Delivering substances to invertebrate organisms” (priority 2000, dated 2008)", "key": {"Zebra mussels [1]": {"system": "Zebra mussels", "assay_type": "in vivo, Dreissena polymorpha", "details": "Mass of toxin 100 mg", "excerpt": "The toxicity of an alternative toxin was also investigated and compared with that of KCl."}, "Zebra mussels [2]": {"system": "Zebra mussels", "assay": "Experiment 8: Batch 7 particles versus KCl in beakers", "assay_type": "in vivo, Dreissena polymorpha", "details": "for No. of live mussels in each pot: 1.15 g KCl", "description": "A batch of particles (“Batch 7”) was manufactured by a fluidised bed coating method. 98 μm KCl particles were passed through a 350 μm sieve with 1% silica to help fluidisation. 800 g of solids were sprayed with palmitic acid (MP 61° C.) for 20 minutes at approximately 12 ml min^−1. 400 g of the resulting solids were then further coated with palmitic acid to finally produce particles containing between 20 and 25% wt of KCl.\n40 1-litre beakers were filled with 500 ml of tap water and aerated overnight in a temperature controlled room at 25° C. Ten large Zebra mussels were placed into each beaker, attempting to keep a similar size range in all. Five different treatments were applied (such that each had eight replicates); • 1. 5 g of (Batch 7) was added. • 2. 0.5 g of (Batch 7) was added. • 3. 0.05 g of (Batch 7) was added. • 4. 5 g of Palmitic acid alone was added. • 5. 1.15 g of KCl (the same amount by mass as in 5 g of Batch 7) was added.\nEach treatment substance was thoroughly stirred into each beaker and aeration continued for the duration of the experiment. At reasonably regular intervals, the number of dead mussels (as indicated by gape) were counted in each pot, before being removed and measured. This was continued until most were dead, or 72 hours had elapsed."}, "Zebra Mussel": {"system": "Zebra Mussel", "details": "cited from earlier work"}, "Rainbow Trout": {"system": "Rainbow Trout", "details": "Rainbow Trout 0.8-1.2 g; cited from earlier work"}, "Zebra mussels [3]": {"system": "Zebra mussels", "assay": "Experiment 1: toxicity of different masses of KCl to Zebra mussels over two days", "assay_type": "in vivo, Dreissena polymorpha", "description": "The toxicity of KCl alone to Zebra mussels is illustrated in Table 1 below, which gives the results of the following experiment:\n1) A series of pots where filled with 20 ml of distilled water plus a specified mass of KCl crystals, ground to less than 53 microns. The masses of KCl were chosen to represent the total amount of KCl that would be ingested by a mussel filtering 1 litre of water per day.\n2) One mussel was placed in each pot (it was assumed that the mussel would continuously re-filter the limited amount of solution in the pot and thus ingest the required amount of KCl."}, "Threehorn Wartyback": {"system": "Threehorn Wartyback", "set-up": "unit not given here", "details": "Threehorn Wartyback 30-50 mm; cited from earlier work"}, "Channel Catfish": {"system": "Channel Catfish", "details": "Channel Catfish 0.8-1.2 g; cited from earlier work"}}, "note": "Values joined by “and” are separate entries in the source; they are usually repeats but may differ in a detail not shown here. Equal values may be shown once. Read-outs that look alike come from different tables or passages of the source. Marks after values point to notes of the source that are not given here.", "data": [{"smiles": "[Cl-].[K+]", "note": "[KCl, potassium chloride]", "values": [{"measurement": "Time for mortality of all mussels", "setting": "Zebra mussels [1]", "result": 8, "unit": "h"}, {"measurement": "mortality", "setting": "Zebra mussels [1]; at 8 hours", "result": 60, "unit": "%"}, {"measurement": "No. of live mussels in each pot", "setting": "Zebra mussels [2]; 0.5 hrs", "result": 10}, {"measurement": "No. of live mussels in each pot", "setting": "Zebra mussels [2]; 1 hrs", "result": "10 and 9"}, {"measurement": "No. of live mussels in each pot", "setting": "Zebra mussels [2]; 1.5 hrs", "result": "10 and 9"}, {"measurement": "No. of live mussels in each pot", "setting": "Zebra mussels [2]; 2 hrs", "result": "10 and 9 and 7"}, {"measurement": "No. of live mussels in each pot", "setting": "Zebra mussels [2]; 3 hrs", "result": "9 and 8 and 7 and 10"}, {"measurement": "No. of live mussels in each pot", "setting": "Zebra mussels [2]; 3.5 hrs", "result": "9 and 8 and 7 and 6"}, {"measurement": "No. of live mussels in each pot", "setting": "Zebra mussels [2]; 4.5 hrs", "result": "8 and 7 and 5 and 6 and 9"}, {"measurement": "No. of live mussels in each pot", "setting": "Zebra mussels [2]; 5 hrs", "result": "7 and 6 and 4 and 5 and 8"}, {"measurement": "No. of live mussels in each pot", "setting": "Zebra mussels [2]; 6 hrs", "result": "6 and 4 and 5 and 7"}, {"measurement": "No. of live mussels in each pot", "setting": "Zebra mussels [2]; 7.5 hrs", "result": "6 and 4 and 3 and 5"}, {"measurement": "mortality", "setting": "Zebra mussels [2]; 1.15 g of KCl, especially over the first 8 hours", "result": "rapid mortality"}, {"measurement": "48-hour LC50", "setting": "Zebra Mussel; Zebra Mussel 5-8 mm", "result": 147, "unit": "µg/mL"}, {"measurement": "48-hour LC50", "setting": "Zebra Mussel; Zebra Mussel 20-25 mm", "result": 150, "unit": "µg/mL"}, {"measurement": "48-hour LC50", "setting": "Rainbow Trout", "result": 1610, "unit": "µg/mL"}, {"measurement": "state of mussel", "setting": "Zebra mussels [3]; 0.1 mg KCl, 17/03/99 16:30", "result": "Alive"}, {"measurement": "state of mussel", "setting": "Zebra mussels [3]; 0.1 mg KCl, 18/03/99 11:30", "result": "Alive"}, {"measurement": "state of mussel", "setting": "Zebra mussels [3]; 0.1 mg KCl, 18/03/99 13:30", "result": "Alive"}, {"measurement": "state of mussel", "setting": "Zebra mussels [3]; 0.1 mg KCl, 19/03/99 16:00", "result": "Alive"}, {"measurement": "state of mussel", "setting": "Zebra mussels [3]; 0.5 mg KCl, 17/03/99 16:30", "result": "Alive"}, {"measurement": "state of mussel", "setting": "Zebra mussels [3]; 0.5 mg KCl, 18/03/99 11:30", "result": "Alive"}, {"measurement": "state of mussel", "setting": "Zebra mussels [3]; 0.5 mg KCl, 18/03/99 13:30", "result": "Closed"}, {"measurement": "state of mussel", "setting": "Zebra mussels [3]; 0.5 mg KCl, 19/03/99 16:00", "result": "Alive"}, {"measurement": "state of mussel", "setting": "Zebra mussels [3]; 1 mg KCl, 17/03/99 16:30", "result": "Alive"}, {"measurement": "state of mussel", "setting": "Zebra mussels [3]; 1 mg KCl, 18/03/99 11:30", "result": "Alive"}, {"measurement": "state of mussel", "setting": "Zebra mussels [3]; 1 mg KCl, 18/03/99 13:30", "result": "Alive"}, {"measurement": "state of mussel", "setting": "Zebra mussels [3]; 1 mg KCl, 19/03/99 16:00", "result": "Alive"}, {"measurement": "state of mussel", "setting": "Zebra mussels [3]; 5 mg KCl, 17/03/99 16:30", "result": "Alive"}, {"measurement": "state of mussel", "setting": "Zebra mussels [3]; 5 mg KCl, 18/03/99 11:30", "result": "Alive"}, {"measurement": "state of mussel", "setting": "Zebra mussels [3]; 5 mg KCl, 18/03/99 13:30", "result": "Alive"}, {"measurement": "state of mussel", "setting": "Zebra mussels [3]; 5 mg KCl, 19/03/99 16:00", "result": "Alive"}, {"measurement": "state of mussel", "setting": "Zebra mussels [3]; 10 mg KCl, 17/03/99 16:30", "result": "Alive"}, {"measurement": "state of mussel", "setting": "Zebra mussels [3]; 10 mg KCl, 18/03/99 11:30", "result": "Alive"}, {"measurement": "state of mussel", "setting": "Zebra mussels [3]; 10 mg KCl, 18/03/99 13:30", "result": "Closed"}, {"measurement": "state of mussel", "setting": "Zebra mussels [3]; 10 mg KCl, 19/03/99 16:00", "result": "Dead"}, {"measurement": "state of mussel", "setting": "Zebra mussels [3]; 25 mg KCl, 17/03/99 16:30", "result": "Alive"}, {"measurement": "state of mussel", "setting": "Zebra mussels [3]; 25 mg KCl, 18/03/99 11:30", "result": "Dead"}, {"measurement": "state of mussel", "setting": "Zebra mussels [3]; 25 mg KCl, 18/03/99 13:30", "result": "Dead"}, {"measurement": "state of mussel", "setting": "Zebra mussels [3]; 25 mg KCl, 19/03/99 16:00", "result": "Dead"}, {"measurement": "state of mussel", "setting": "Zebra mussels [3]; 50 mg KCl, 17/03/99 16:30", "result": "Alive"}, {"measurement": "state of mussel", "setting": "Zebra mussels [3]; 50 mg KCl, 18/03/99 11:30", "result": "Dead"}, {"measurement": "state of mussel", "setting": "Zebra mussels [3]; 50 mg KCl, 18/03/99 13:30", "result": "Dead"}, {"measurement": "state of mussel", "setting": "Zebra mussels [3]; 50 mg KCl, 19/03/99 16:00", "result": "Dead"}, {"measurement": "effectiveness of KCl alone over the test period", "setting": "Zebra mussels [3]; lower concentrations", "result": "not effective"}, {"measurement": "48-hour LC50", "setting": "Threehorn Wartyback", "result": ">2000^a"}, {"measurement": "48-hour LC50", "setting": "Channel Catfish", "result": 720, "unit": "µg/mL"}]}]}
